Reference: PubChem BioAssay AID2060507 (Molecular Pharmacology Branch, DTP, NCI, 2025)

Test system: 519858-162-T-J1-PDC complex spheroid viability
Experiment: Anticancer human tumor 519858-162-T-J1-PDC patient-derived colon adenocarcinoma cell line growth inhibition [GQUAD]
Conditions: for IC50: curve of first compound; for viability, T/C: stronger effect = lower value
In short: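 Viability of tumor cells grown as complex spheroids with endothelial and stromal cells, exposed to drug combinations. Top concentration at or near clinical Cmax (else 10 microM), diluted in half-log increments.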

[1] = second compound 0.0316 µM, first compound 0.0316 µM
[2] = second compound 0.0316 µM, first compound 0.1 µM
[3] = second compound 0.0316 µM, first compound 0.316 µM
[4] = second compound 0.0316 µM, first compound 1 µM
[5] = second compound 0.0316 µM, first compound 3.16 µM
[6] = second compound 0.0316 µM, first compound 10 µM
[7] = second compound 0.1 µM, first compound 0.0316 µM
[8] = second compound 0.1 µM, first compound 0.1 µM
[9] = second compound 0.1 µM, first compound 0.316 µM
[10] = second compound 0.1 µM, first compound 1 µM
[11] = second compound 0.1 µM, first compound 3.16 µM
[12] = second compound 0.1 µM, first compound 10 µM
[13] = second compound 0.316 µM, first compound 0.0316 µM
[14] = second compound 0.316 µM, first compound 0.1 µM
[15] = second compound 0.316 µM, first compound 0.316 µM
[16] = second compound 0.316 µM, first compound 1 µM
[17] = second compound 0.316 µM, first compound 3.16 µM
[18] = second compound 0.316 µM, first compound 10 µM
[19] = second compound 1 µM, first compound 0.0316 µM
[20] = second compound 1 µM, first compound 0.1 µM
[21] = second compound 1 µM, first compound 0.316 µM
[22] = second compound 1 µM, first compound 1 µM
[23] = second compound 1 µM, first compound 3.16 µM
[24] = second compound 1 µM, first compound 10 µM
[25] = second compound 3.16 µM, first compound 0.0316 µM
[26] = second compound 3.16 µM, first compound 0.1 µM
[27] = second compound 3.16 µM, first compound 0.316 µM
[28] = second compound 3.16 µM, first compound 1 µM
[29] = second compound 3.16 µM, first compound 3.16 µM
[30] = second compound 3.16 µM, first compound 10 µM
[31] = second compound 10 µM, first compound 0.0316 µM
[32] = second compound 10 µM, first compound 0.1 µM
[33] = second compound 10 µM, first compound 0.316 µM
[34] = second compound 10 µM, first compound 1 µM
[35] = second compound 10 µM, first compound 3.16 µM
[36] = second compound 10 µM, first compound 10 µM
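Throughout, for viability, T/C: 100% = DMSO vehicle control viability.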

**Q.** For C=CCn1c(=O)c2cnc(Nc3ccc(N4CCN(C)CC4)cc3)nc2n1-c1cccc(C(C)(C)O)n1 + Cc1cnc(CNC(=O)c2c(=O)c3ccc(N4CCCN(C)CC4)nc3n3c2sc2ccccc23)cn1, which IC50 (second compound 0.0316 µM) is on record?
**A.** > 10 µM

**Q.** And the IC50 (second compound 0.1 µM)?
**A.** > 10 µM

**Q.** And the IC50 (second compound 0.316 µM)?
**A.** > 10 µM

**Q.** And the IC50 (second compound 1 µM)?
**A.** < 0.0316 µM

**Q.** What about the IC50 (second compound 3.16 µM) of the same molecule?
**A.** < 0.0316 µM

**Q.** And the IC50 (second compound 10 µM)?
**A.** < 0.0316 µM

**Q.** And the viability, T/C [1]?
**A.** 95.6%

**Q.** What about the viability, T/C [2] of the same molecule?
**A.** 82.6%

**Q.** And the viability, T/C [3]?
**A.** 94.3%

**Q.** And the viability, T/C [4]?
**A.** 66.1%

**Q.** What about the viability, T/C [5] of the same molecule?
**A.** 70.4%

**Q.** And the viability, T/C [6]?
**A.** 76%

**Q.** And the viability, T/C [7]?
**A.** 81.8%

**Q.** What about the viability, T/C [8] of the same molecule?
**A.** 96.9%

**Q.** And the viability, T/C [9]?
**A.** 58.5%

**Q.** And the viability, T/C [10]?
**A.** 92%

**Q.** What about the viability, T/C [11] of the same molecule?
**A.** 66.8%

**Q.** And the viability, T/C [12]?
**A.** 69.7%

**Q.** What about the viability, T/C [13] of the same molecule?
**A.** 51.6%

**Q.** And the viability, T/C [14]?
**A.** 73%

**Q.** What about the viability, T/C [15] of the same molecule?
**A.** 49.8%

**Q.** And the viability, T/C [16]?
**A.** 64.2%

**Q.** What about the viability, T/C [17] of the same molecule?
**A.** 75.8%

**Q.** What about the viability, T/C [18] of the same molecule?
**A.** 64.3%

**Q.** What about the viability, T/C [19] of the same molecule?
**A.** 60%

**Q.** What about the viability, T/C [20] of the same molecule?
**A.** 48.2%

**Q.** What about the viability, T/C [21] of the same molecule?
**A.** 38.8%

**Q.** And the viability, T/C [22]?
**A.** 42.4%

**Q.** And the viability, T/C [23]?
**A.** 73.6%

**Q.** And the viability, T/C [24]?
**A.** 68%

**Q.** What about the viability, T/C [25] of the same molecule?
**A.** 46.3%

**Q.** And the viability, T/C [26]?
**A.** 51.4%

**Q.** What about the viability, T/C [27] of the same molecule?
**A.** 53.8%

**Q.** And the viability, T/C [28]?
**A.** 45.5%

**Q.** What about the viability, T/C [29] of the same molecule?
**A.** 49.5%

**Q.** And the viability, T/C [30]?
**A.** 53.4%

**Q.** What about the viability, T/C [31] of the same molecule?
**A.** 40%

**Q.** What about the viability, T/C [32] of the same molecule?
**A.** 55.3%

**Q.** And the viability, T/C [33]?
**A.** 51.6%

**Q.** And the viability, T/C [34]?
**A.** 40.1%

**Q.** And the viability, T/C [35]?
**A.** 32.3%

**Q.** What about the viability, T/C [36] of the same molecule?
**A.** 39.4%

**Q.** For COc1ncnc(C2CC2)c1-c1ncc2cnn(Cc3ccc(-c4nc(C(F)(F)F)cn4C(C)C)cc3)c2n1 + Cc1cnc(CNC(=O)c2c(=O)c3ccc(N4CCCN(C)CC4)nc3n3c2sc2ccccc23)cn1, which IC50 (second compound 0.0316 µM) is on record?
**A.** > 10 µM

**Q.** And the IC50 (second compound 0.1 µM)?
**A.** > 10 µM

**Q.** And the IC50 (second compound 0.316 µM)?
**A.** 8.6 µM

**Q.** And the IC50 (second compound 1 µM)?
**A.** 0.809 µM

**Q.** And the IC50 (second compound 3.16 µM)?
**A.** < 0.0316 µM

**Q.** And the IC50 (second compound 10 µM)?
**A.** < 0.0316 µM

**Q.** And the viability, T/C [1]?
**A.** 87.7%

**Q.** What about the viability, T/C [2] of the same molecule?
**A.** 65.6%

**Q.** What about the viability, T/C [3] of the same molecule?
**A.** 88.7%

**Q.** What about the viability, T/C [4] of the same molecule?
**A.** 79.3%

**Q.** What about the viability, T/C [5] of the same molecule?
**A.** 90.6%

**Q.** What about the viability, T/C [6] of the same molecule?
**A.** 67.6%

**Q.** What about the viability, T/C [7] of the same molecule?
**A.** 85.6%

**Q.** And the viability, T/C [8]?
**A.** 74.8%

**Q.** What about the viability, T/C [9] of the same molecule?
**A.** 97.7%

**Q.** And the viability, T/C [10]?
**A.** 77.9%

**Q.** And the viability, T/C [11]?
**A.** 97.2%

**Q.** What about the viability, T/C [12] of the same molecule?
**A.** 54%

**Q.** What about the viability, T/C [13] of the same molecule?
**A.** 72.4%

**Q.** And the viability, T/C [14]?
**A.** 54.8%

**Q.** And the viability, T/C [15]?
**A.** 64.1%

**Q.** What about the viability, T/C [16] of the same molecule?
**A.** 67.5%

**Q.** What about the viability, T/C [17] of the same molecule?
**A.** 45.5%

**Q.** What about the viability, T/C [18] of the same molecule?
**A.** 50.4%

**Q.** What about the viability, T/C [19] of the same molecule?
**A.** 55.7%

**Q.** And the viability, T/C [20]?
**A.** 54.1%

**Q.** What about the viability, T/C [21] of the same molecule?
**A.** 47.6%

**Q.** What about the viability, T/C [22] of the same molecule?
**A.** 47.8%

**Q.** And the viability, T/C [23]?
**A.** 49.1%

**Q.** What about the viability, T/C [24] of the same molecule?
**A.** 53.3%

**Q.** What about the viability, T/C [25] of the same molecule?
**A.** 49.2%

**Q.** And the viability, T/C [26]?
**A.** 40.1%

**Q.** What about the viability, T/C [27] of the same molecule?
**A.** 46%

**Q.** And the viability, T/C [28]?
**A.** 30.3%

**Q.** What about the viability, T/C [29] of the same molecule?
**A.** 63.7%

**Q.** What about the viability, T/C [30] of the same molecule?
**A.** 48.6%

**Q.** What about the viability, T/C [31] of the same molecule?
**A.** 35.8%

**Q.** And the viability, T/C [32]?
**A.** 55.3%

**Q.** And the viability, T/C [33]?
**A.** 48.5%

**Q.** And the viability, T/C [34]?
**A.** 26.8%

**Q.** What about the viability, T/C [35] of the same molecule?
**A.** 47.6%

**Q.** What about the viability, T/C [36] of the same molecule?
**A.** 90.8%
